In PubChem BioAssay (NCI):
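How tested: cells in 96-well plates exposed to compound for 48 hours at five concentrations. TGI is the concentration that stops growth completely.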

Legend:
Assay in all cases: NCI-60 cell line screen, 48 h
CCRF-CEM leukemia = tested on: CCRF-CEM leukemia
RXF 393 renal = tested on: RXF 393 renal
KM12 colon = tested on: KM12 colon
SNB-19 CNS = tested on: SNB-19 CNS
HCC-2998 colon = tested on: HCC-2998 colon
HOP-18 NSCLC = tested on: HOP-18 NSCLC
SK-MEL-28 melanoma = tested on: SK-MEL-28 melanoma
SF-295 CNS = tested on: SF-295 CNS
HCT-15 colon = tested on: HCT-15 colon
NCI-H522 lung = tested on: NCI-H522 lung
ACHN renal = tested on: ACHN renal
SW-620 colon = tested on: SW-620 colon
A549 NSCLC = tested on: A549 NSCLC
CAKI-1 renal = tested on: CAKI-1 renal
OVCAR-4 ovarian = tested on: OVCAR-4 ovarian
SF-539 CNS = tested on: SF-539 CNS
HOP-62 NSCLC = tested on: HOP-62 NSCLC
UACC-257 melanoma = tested on: UACC-257 melanoma
SNB-78 CNS = tested on: SNB-78 CNS
HT29 colon = tested on: HT29 colon
SK-OV-3 ovarian = tested on: SK-OV-3 ovarian
786-0 renal = tested on: 786-0 renal
A498 renal = tested on: A498 renal
M19-MEL melanoma = tested on: M19-MEL melanoma
RXF-631 renal = tested on: RXF-631 renal
MOLT-4 leukemia = tested on: MOLT-4 leukemia
HL-60(TB) leukemia = tested on: HL-60(TB) leukemia
NCI-H226 lung = tested on: NCI-H226 lung
MALME-3M melanoma = tested on: MALME-3M melanoma
SK-MEL-5 melanoma = tested on: SK-MEL-5 melanoma
UO-31 renal = tested on: UO-31 renal
HOP-92 NSCLC = tested on: HOP-92 NSCLC
COLO 205 colon = tested on: COLO 205 colon
SN12C renal = tested on: SN12C renal
SNB-75 CNS = tested on: SNB-75 CNS
EKVX NSCLC = tested on: EKVX NSCLC
DLD-1 colon = tested on: DLD-1 colon
OVCAR-5 ovarian = tested on: OVCAR-5 ovarian
SF-268 CNS = tested on: SF-268 CNS
M14 melanoma = tested on: M14 melanoma
RPMI-8226 leukemia = tested on: RPMI-8226 leukemia
TK-10 renal = tested on: TK-10 renal
HCT-116 colon = tested on: HCT-116 colon
IGROV1 ovarian = tested on: IGROV1 ovarian
LXFL 529 NSCLC = tested on: LXFL 529 NSCLC
U251 CNS = tested on: U251 CNS
UACC-62 melanoma = tested on: UACC-62 melanoma
DMS 114 small cell lung = tested on: DMS 114 small cell lung
LOX IMVI melanoma = tested on: LOX IMVI melanoma
KM20L2 colon = tested on: KM20L2 colon
SR leukemia = tested on: SR leukemia
OVCAR-8 ovarian = tested on: OVCAR-8 ovarian
OVCAR-3 ovarian = tested on: OVCAR-3 ovarian
NCI-H460 lung = tested on: NCI-H460 lung
DMS 273 small cell lung = tested on: DMS 273 small cell lung
NCI-H23 lung = tested on: NCI-H23 lung
SK-MEL-2 melanoma = tested on: SK-MEL-2 melanoma
K-562 leukemia = tested on: K-562 leukemia

For `CC1=C2C3OC(=O)C(C)C3C(O)C[C@@]2(C)C(=O)CC1` (stereo partly specified), the TGI (CCRF-CEM leukemia) was greater than 100 µM, the TGI (RXF 393 renal) was greater than 100 µM and the TGI (KM12 colon) was greater than 100 µM. For the same compound, the TGI (SNB-19 CNS) was greater than 100 µM, the TGI (HCC-2998 colon) was greater than 100 µM and the TGI (HOP-18 NSCLC) was greater than 100 µM. For the same compound, the TGI (SK-MEL-28 melanoma) was greater than 100 µM, the TGI (SF-295 CNS) was greater than 100 µM and the TGI (HCT-15 colon) was greater than 100 µM. For the same compound, the TGI (NCI-H522 lung) was greater than 100 µM, the TGI (ACHN renal) was greater than 100 µM and the TGI (SW-620 colon) was greater than 100 µM. It also gave a TGI (A549 NSCLC) greater than 100 µM, a TGI (CAKI-1 renal) greater than 100 µM and a TGI (OVCAR-4 ovarian) greater than 100 µM. It also gave a TGI (SF-539 CNS) greater than 100 µM, a TGI (HOP-62 NSCLC) greater than 100 µM and a TGI (UACC-257 melanoma) greater than 100 µM. It also gave a TGI (SNB-78 CNS) greater than 100 µM, a TGI (HT29 colon) greater than 100 µM and a TGI (SK-OV-3 ovarian) greater than 100 µM. For the same compound, the TGI (786-0 renal) was greater than 100 µM, the TGI (A498 renal) was greater than 100 µM and the TGI (M19-MEL melanoma) was greater than 100 µM. For the same compound, the TGI (RXF-631 renal) was greater than 100 µM, the TGI (MOLT-4 leukemia) was greater than 100 µM and the TGI (HL-60(TB) leukemia) was greater than 100 µM. The TGI (NCI-H226 lung) was greater than 100 µM, the TGI (MALME-3M melanoma) was greater than 100 µM and the TGI (SK-MEL-5 melanoma) was greater than 100 µM. The TGI (UO-31 renal) was greater than 100 µM, the TGI (HOP-92 NSCLC) was greater than 100 µM and the TGI (COLO 205 colon) was greater than 100 µM. The TGI (SN12C renal) was greater than 100 µM, the TGI (SNB-75 CNS) was greater than 100 µM and the TGI (EKVX NSCLC) was greater than 100 µM. It also gave a TGI (DLD-1 colon) greater than 100 µM, a TGI (OVCAR-5 ovarian) greater than 100 µM and a TGI (SF-268 CNS) greater than 100 µM. The TGI (M14 melanoma) was greater than 100 µM, the TGI (RPMI-8226 leukemia) was greater than 100 µM and the TGI (TK-10 renal) was greater than 100 µM. It also gave a TGI (HCT-116 colon) greater than 100 µM, a TGI (IGROV1 ovarian) greater than 100 µM and a TGI (LXFL 529 NSCLC) greater than 100 µM. For the same compound, the TGI (U251 CNS) was greater than 100 µM, the TGI (UACC-62 melanoma) was greater than 100 µM and the TGI (DMS 114 small cell lung) was greater than 100 µM. It also gave a TGI (LOX IMVI melanoma) greater than 100 µM, a TGI (KM20L2 colon) greater than 100 µM and a TGI (SR leukemia) greater than 100 µM. The TGI (OVCAR-8 ovarian) was greater than 100 µM, the TGI (OVCAR-3 ovarian) was greater than 100 µM and the TGI (NCI-H460 lung) was greater than 100 µM. The TGI (DMS 273 small cell lung) was greater than 100 µM.
In the case of `COC(=O)C(/C(=N\O)C(=O)Nc1ccc(Br)cc1)c1nc2ccccc2[nH]c1=O` (stereo unspecified), the TGI (CCRF-CEM leukemia) is reported as 72.9 µM, the TGI (RXF 393 renal) is reported as 89.2 µM and the TGI (KM12 colon) is reported as greater than 100 µM. It also gave a TGI (SNB-19 CNS) greater than 100 µM, a TGI (NCI-H23 lung) greater than 100 µM and a TGI (HCC-2998 colon) greater than 100 µM. The TGI (HOP-18 NSCLC) was greater than 100 µM, the TGI (SK-MEL-28 melanoma) was greater than 100 µM and the TGI (SF-295 CNS) was greater than 100 µM. For the same compound, the TGI (HCT-15 colon) was greater than 100 µM, the TGI (NCI-H522 lung) was 32.5 µM and the TGI (ACHN renal) was greater than 100 µM. For the same compound, the TGI (A549 NSCLC) was greater than 100 µM, the TGI (CAKI-1 renal) was greater than 100 µM and the TGI (OVCAR-4 ovarian) was greater than 100 µM. It also gave a TGI (SF-539 CNS) of 58.4 µM, a TGI (HOP-62 NSCLC) of 92.6 µM and a TGI (UACC-257 melanoma) greater than 100 µM. For the same compound, the TGI (SNB-78 CNS) was greater than 100 µM, the TGI (HT29 colon) was greater than 100 µM and the TGI (SK-OV-3 ovarian) was greater than 100 µM. The TGI (786-0 renal) was 90.8 µM, the TGI (SK-MEL-2 melanoma) was 49.2 µM and the TGI (A498 renal) was greater than 100 µM. For the same compound, the TGI (M19-MEL melanoma) was 68.2 µM, the TGI (RXF-631 renal) was greater than 100 µM and the TGI (MOLT-4 leukemia) was 57.5 µM. The TGI (HL-60(TB) leukemia) was 55.3 µM, the TGI (NCI-H226 lung) was 71.9 µM and the TGI (MALME-3M melanoma) was greater than 100 µM. The TGI (SK-MEL-5 melanoma) was 68.2 µM, the TGI (UO-31 renal) was greater than 100 µM and the TGI (HOP-92 NSCLC) was 97.6 µM. It also gave a TGI (COLO 205 colon) of 37.5 µM, a TGI (SN12C renal) greater than 100 µM and a TGI (SNB-75 CNS) greater than 100 µM. For the same compound, the TGI (EKVX NSCLC) was greater than 100 µM, the TGI (DLD-1 colon) was greater than 100 µM and the TGI (OVCAR-5 ovarian) was greater than 100 µM. It also gave a TGI (SF-268 CNS) greater than 100 µM, a TGI (M14 melanoma) greater than 100 µM and a TGI (RPMI-8226 leukemia) of 61.6 µM. For the same compound, the TGI (HCT-116 colon) was greater than 100 µM, the TGI (IGROV1 ovarian) was 71.4 µM and the TGI (LXFL 529 NSCLC) was 80.5 µM. For the same compound, the TGI (U251 CNS) was greater than 100 µM, the TGI (UACC-62 melanoma) was 73.1 µM and the TGI (K-562 leukemia) was 67 µM. For the same compound, the TGI (DMS 114 small cell lung) was 41.2 µM, the TGI (LOX IMVI melanoma) was 41.6 µM and the TGI (KM20L2 colon) was greater than 100 µM. The TGI (SR leukemia) was 40.5 µM, the TGI (OVCAR-8 ovarian) was greater than 100 µM and the TGI (OVCAR-3 ovarian) was 50 µM. It also gave a TGI (NCI-H460 lung) greater than 100 µM and a TGI (DMS 273 small cell lung) greater than 100 µM.
